Test results reported in US20240025862A1, “SUBSTITUTED N-PHENYLURACILS AND SALTS THEREOF, AND USE THEREOF AS HERBICIDAL ACTIVE SUBSTANCES” (Bayer Aktiengesellschaft, priority 2020, published 2024).
Each block holds one compound with its values, some of them ahead of it.

Key:
Type in all cases: in vivo
[1] = test system: Setaria viridis (SETVI); test: Post-emergence herbicidal action, greenhouse pot test (also comparative test C); details: for Post-emergence action against SETVI: 20 g/ha
Summary of the method: (§1)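 Green parts of one-leaf-stage plants are sprayed at 600 l/ha with formulated compound plus 0.5% additive, then kept under optimum greenhouse conditions for about 3 weeks. Damage is scored visually, where 100% means dead plants and 0% means no difference from controls.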

[2] = test system: Matricaria inodora (MATIN); test: as above
Summary of the method: as §1

[3] = test system: Echinochloa crus-galli (ECHCG); test: as above
Summary of the method: as §1

[4] = test system: Alopecurus myosuroides (ALOMY); test: as above
Summary of the method: as §1

[5] = test system: Glycine max (GLXMA); test: Post-emergence crop plant compatibility, greenhouse pot test
Summary of the method: (§2)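 Seeds are sown in sandy loam and grown under controlled greenhouse conditions. At the one-leaf stage (2–3 weeks), foliage is sprayed with the formulated compound in water containing 0.5% additive at 600 l/ha. About 3 weeks later, injury is rated visually in % against untreated plants.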

[6] = test system: Brassica napus (BRSNW); test: as above; details: for Post-emergence action against BRSNW (crop plant compatibility): 1.25 g/ha, vs untreated controls
Summary of the method: as §2

[7] = test system: Triticum aestivum (TRZAS); test: as above; details: 1.25 g/ha, vs untreated controls
Summary of the method: as §2

[8] = test system: Oryza sativa (ORYSA); test: Post-emergence crop plant compatibility, greenhouse pot test (also comparative test C); details: for Post-emergence action against ORYSA (crop plant compatibility): vs untreated controls
Summary of the method: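 Rice and other crops sprayed post-emergence at one-leaf stage (2–3 weeks after sowing) with WP or EC formulations plus 0.5% additive at 600 l/ha water. Visual rating about 3 weeks later versus untreated controls (100% = dead, 0% = like control); suffixes a–c denote different doses.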

[9] = test system: Pharbitis purpurea (PHBPU); test: Post-emergence herbicidal action, greenhouse pot test
Summary of the method: (§3)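 Greenhouse-grown weeds in sandy loam were sprayed post-emergence at the one-leaf stage, 2–3 weeks after sowing. Compounds were formulated as WP or EC in water with 0.5% additive at 600 l/ha, at rates of 20 g/ha or less. Visual rating after about 3 weeks used a scale from 0% (like untreated control) to 100% (plants dead).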

[10] = test system: Viola tricolor (VIOTR); test: as above
Summary of the method: as §3

[11] = test system: Polygonum convolvulus (POLCO); test: as above
Summary of the method: as §3

[12] = test system: Stellaria media (STEME); test: as above
Summary of the method: as §3

[13] = test system: Amaranthus retroflexus (AMARE); test: as above; details: rated visually after about 3 weeks vs untreated controls, 100% = plants have died
Summary of the method: as §3

[14] = test system: Veronica persica (VERPE); test: as above
Summary of the method: as §3

[15] = test system: Abutilon theophrasti (ABUTH); test: as above; details: rated visually after about 3 weeks vs untreated controls, 100% = plants have died
Summary of the method: as §3

[16] = test system: Zea mays (ZEAMX); test: Post-emergence crop plant compatibility, greenhouse pot test; details: 1.25 g/ha, vs untreated controls
Summary of the method: as §2

[17] = test system: Avena fatua (AVEFA); test: Post-emergence herbicidal action, greenhouse pot test; details: 20 g/ha, rated visually after about 3 weeks vs untreated controls, 100% = plants have died
Summary of the method: as §3

[18] = rated visually after about 3 weeks vs untreated controls, 100% = plants have died
[19] = application rate of 5 g or less per hectare, tables C1 to C4
[20] = comparative test C, application rate 1.25 g/ha

Post-emergence action against GLXMA in % ([5]; 1.25 g/ha): 0%
Post-emergence action against GLXMA in % ([5]; 5 g/ha): 10%
Post-emergence action against GLXMA in % ([5]; 20 g/ha): 20%
Post-emergence action against BRSNW (crop plant compatibility) [6]: 20%
Post-emergence action against TRZAS (crop plant compatibility) [7]: 20%
Post-emergence action against ORYSA (crop plant compatibility) ([8]; 1.25 g/ha): 10%
Post-emergence action against ORYSA (crop plant compatibility) ([8]; 5 g/ha): 10%
Compound: COCCOCCOC(=O)C(C)Oc1ccccc1Sc1cc(-n2c(=O)cc(C(F)(F)F)n(C)c2=O)c(F)cc1Cl (racemic) [I.2-23]
Post-emergence action against SETVI [1]: 100%
Post-emergence action against SETVI in % ([1]; dosage 5 g/ha): 100%
Post-emergence action against MATIN in % ([2]; dosage 5 g/ha): 80%
Post-emergence action against MATIN in % ([2]; dosage 20 g/ha): 100%
Post-emergence action against ECHCG in % ([3]; dosage 5 g/ha): 100%
Post-emergence action against ECHCG in % ([3]; dosage 20 g/ha): 100%
Post-emergence action at 20 g/ha against ALOMY in % [4, 18]: 80%
Post-emergence action at 5 g/ha against BRSNW in % ([6]; 5 g/ha, crop plant compatibility, observed effects on crop plant in comparison to untreated controls): 20%
Post-emergence action against PHBPU in % ([9]; dosage 1.25 g/ha): 100%
Post-emergence action against PHBPU in % ([9]; dosage 5 g/ha): 100%
Post-emergence action against PHBPU in % ([9]; dosage 20 g/ha): 100%
Post-emergence action against VIOTR ([10]; 5 g/ha): 100%
Post-emergence action against VIOTR ([10]; 20 g/ha): 100%
Post-emergence action against POLCO in % ([11]; dosage 5 g/ha): 100%
Post-emergence action against POLCO in % ([11]; dosage 20 g/ha): 100%
Post-emergence action against STEME ([12]; 5 g/ha): 100%
Post-emergence action against STEME ([12]; 20 g/ha): 100%
Post-emergence action at 1.25 g/ha against AMARE in % [13]: 80%
Post-emergence action at 5 g/ha against AMARE in % [13]: 100%
Post-emergence action at 20 g/ha against AMARE in % [13]: 100%
Post-emergence action against VERPE ([14]; 1.25 g/ha): 80%
Post-emergence action against VERPE ([14]; 5 g/ha): 100%
Post-emergence action against VERPE ([14]; 20 g/ha): 100%
Post-emergence action at 1.25 g/ha against ABUTH in % [15]: 100%
Post-emergence action at 5 g/ha against ABUTH in % [15]: 100%
Post-emergence action at 20 g/ha against ABUTH in % [15]: 100%

Post-emergence action against ZEAMX (crop plant compatibility) [16]: 20%
Post-emergence action against BRSNW (crop plant compatibility) [6]: 20%
Post-emergence action against TRZAS (crop plant compatibility) [7]: 0%
Post-emergence action against ORYSA (crop plant compatibility) ([8]; 1.25 g/ha): 0%
compatibility with respect to the crop plant Oryza sativa (ORYSA) by comparison with literature compound a-17 / 3-14 ([8]; application rate of 1.25 g per hectare, table C5): distinct improvement in compatibility
ORYSA (efficacy in %) ([8]; comparative test C, application rate 1.25 g/ha, crop plant compatibility): 0%
Compound: Cn1c(C(F)(F)F)cc(=O)n(-c2cc(Oc3ccccc3OCC(=O)OC3COC3)c(Cl)cc2F)c1=O [I.7-115]
Post-emergence action against SETVI [1]: 100%
herbicidal efficacy against SETVI by comparison with literature compound a-17 / 3-14 [1, 19]: distinct improvement in herbicidal efficacy
SETVI (efficacy in %) [1, 20]: 100%
Post-emergence action against SETVI in % ([1]; dosage 1.25 g/ha): 100%
Post-emergence action against SETVI in % ([1]; dosage 5 g/ha): 100%
herbicidal efficacy against MATIN by comparison with literature compound a-17 / 3-14 [2, 19]: distinct improvement in herbicidal efficacy
MATIN (efficacy in %) [2, 20]: 100%
Post-emergence action against MATIN in % ([2]; dosage 1.25 g/ha): 100%
Post-emergence action against MATIN in % ([2]; dosage 5 g/ha): 100%
Post-emergence action against MATIN in % ([2]; dosage 20 g/ha): 100%
Post-emergence action at 1.25 g/ha against ECHCG in % ([3]; 1.25 g/ha, rated visually after about 3 weeks vs untreated controls, 100% = plants have died): 100%
herbicidal efficacy against ECHCG by comparison with literature compound a-17 / 3-14 [3, 19]: distinct improvement in herbicidal efficacy
ECHCG (efficacy in %) [3, 20]: 100%
Post-emergence action against ECHCG in % ([3]; dosage 5 g/ha): 100%
Post-emergence action against ECHCG in % ([3]; dosage 20 g/ha): 100%
Post-emergence action at 5 g/ha against ALOMY in % ([4]; 5 g/ha, rated visually after about 3 weeks vs untreated controls, 100% = plants have died): 100%
Post-emergence action at 20 g/ha against ALOMY in % [4, 18]: 100%
herbicidal efficacy against ALOMY by comparison with literature compound a-17 / 3-14 [4, 19]: distinct improvement in herbicidal efficacy
Post-emergence action against PHBPU in % ([9]; dosage 1.25 g/ha): 100%
Post-emergence action against PHBPU in % ([9]; dosage 5 g/ha): 100%
Post-emergence action against PHBPU in % ([9]; dosage 20 g/ha): 100%
Post-emergence action against VIOTR ([10]; 1.25 g/ha): 100%
Post-emergence action against VIOTR ([10]; 5 g/ha): 100%
Post-emergence action against VIOTR ([10]; 20 g/ha): 100%
Post-emergence action against POLCO in % ([11]; dosage 5 g/ha): 100%
Post-emergence action against POLCO in % ([11]; dosage 20 g/ha): 100%
Post-emergence action at 1.25 g/ha against AMARE in % [13]: 100%
Post-emergence action at 5 g/ha against AMARE in % [13]: 100%
Post-emergence action at 20 g/ha against AMARE in % [13]: 100%
Post-emergence action against VERPE ([14]; 1.25 g/ha): 100%
Post-emergence action against VERPE ([14]; 5 g/ha): 100%
Post-emergence action against VERPE ([14]; 20 g/ha): 100%
Post-emergence action at 1.25 g/ha against ABUTH in % [15]: 80%
Post-emergence action at 5 g/ha against ABUTH in % [15]: 100%
Post-emergence action at 20 g/ha against ABUTH in % [15]: 100%
Post-emergence action at 20 g/ha against AVEFA in % [17]: 100%
